Results published in BindingDB's records for doi:10.1016/0960-894X(95)00078-8 (1995).
Peptide text beside a SMILES is read from it.

How the values were obtained:
[1] = In vitro ability to displace [125 I]CGRP from Calcitonin gene-related peptide type receptor at 4 degrees Celsius in rabbit porcine c+i
[2] = In vitro ability to displace [125 I]CGRP from Calcitonin gene-related peptide type receptor at 4 degrees Centigrade in rabbit lung

## CC(C)C[C@H](NC(=O)COCCOCCNC(=O)[C@@H](NC(=O)[C@H](CS)NC(=O)[C@@H](NC(=O)[C@H](C)NC(=O)[C@@H](NC(=O)[C@H](CC(=O)O)NC(=O)[C@H](CS)NC(=O)[C@H](C)N)[C@@H](C)O)[C@@H](C)O)C(C)C)C(=O)N[C@@H](CO)C(=O)N[C@@H](CCCNC(=N)N)C(=O)N[C@@H](CO)C(=O)NCC(=O)NCC(=O)N[C@H](C(=O)N[C@H](C(=O)N[C@@H](CCCCN)C(=O)N[C@@H](CC(N)=O)C(=O)N[C@@H](CC(N)=O)C(=O)N[C@@H](Cc1ccccc1)C(=O)N[C@H](C(=O)N1CCC[C@H]1C(=O)N[C@H](C(=O)N[C@@H](CC(N)=O)C(=O)N[C@H](C(=O)NCC(=O)N[C@@H](CO)C(=O)N[C@@H](CCCCN)C(=O)N[C@@H](C)C(=O)N[C@@H](Cc1ccccc1)C(=O)O)C(C)C)[C@@H](C)O)C(C)C)C(C)C)C(C)C
[1]
  IC50: 995 nM
[2]
  IC50: 185 nM

## CC(C)[C@H](NC(=O)CNC(=O)CNC(=O)[C@H](CO)NC(=O)[C@H](CCCN=C(N)N)NC(=O)[C@@H](NC(=O)[C@H](CCCN=C(N)N)NC(=O)[C@@H](NC(=O)[C@H](Cc1c[nH]cn1)NC(=O)[C@@H](NC(=O)[C@H](CS)NC(=O)[C@@H](NC(=O)[C@H](C)NC(=O)[C@@H](NC(=O)[C@H](CC(=O)O)NC(=O)[C@H](CS)NC(=O)[C@H](C)N)[C@@H](C)O)[C@@H](C)O)C(C)C)C(C)C)C(C)C)C(=O)N[C@H](C(=O)N[C@@H](CCCCN)C(=O)N[C@@H](CC(N)=O)C(=O)N[C@@H](CC(N)=O)C(=O)N[C@@H](Cc1ccccc1)C(=O)N[C@H](C(=O)N1CCC[C@H]1C(=O)N[C@H](C(=O)N[C@@H](CC(N)=O)C(=O)N[C@H](C(=O)NCC(=O)N[C@@H](CO)C(=O)N[C@@H](CCCCN)C(=O)N[C@@H](C)C(=O)N[C@@H](Cc1ccccc1)C(N)=O)C(C)C)[C@@H](C)O)C(C)C)C(C)C (H-ACDTATCVHVRVRSGGVVKNNFVPTNVGSKAF-NH2)
[1]
  IC50: 14 nM
[2]
  IC50: 4 nM
